# Patent EP0471345B1, “Determination of biogenous amines” (BOEHRINGER MANNHEIM GMBH, priority 1990, dated 1992)
# Key:
# Test in all cases: competitive ELISA: relative affinity and cross-reactivity of monoclonal antibodies against Histamin-ITCB
# [1] = system: monoklonaler Antikörper 1.17.44 (ECACC 90071901) gegen Histamin-ITCB; conditions: amount of Histamin-ITCB for 50 % signal drop (50 % IC) in ELISA; antibody 1.17.44
# Source text: (§1) Zur Ermittlung der Relativen Affinität werden Kompetitionskurven mit dem homologen Antigen ermittelt und ausgewertet.
# (§2) Mikrotiterplatten werden mit 100 »l pro well einer Lösung aus 10 »g Thermo-SA-Streptavidin/ml (Herstellung nach EP-A 0269 092) in Puffer pH 9,6 eine Stunde bei Raumtemperatur beschichtet. Die Platten werden mit 0,9% Natriumchloridlösung gewaschen. […] Darauf werden 100 »l Probe in PBS eine Stunde bei Raumtemperatur inkubiert und erneut mit 0,9 % Natriumchloridlösung gewaschen. Es folgt eine weitere Inkubation (1 Stunde bei Raumtemperatur) mit 100 »l/well einer Lösung von 150 mU/ml eines Schaf-anti-Maus-IgG-Peroxidase-Konjugats (Boehringer Mannheim GmbH, Best.-Nr. 821489) in PBS/O,5 % RSA. Nach einem weiteren Waschschritt mit 0,9 % Natriumchloridlösung wird die Peroxidaseaktivität durch Zugabe von 100 »l/well einer ABTS®-Lösung (100 mg ABTS; 3,25 mmol/l Natriumperborat; 39,8 mmol/l Citronensäure; 60 mmol/l Natriumphosphat; pH 4,4-4,5) 30 min bei Raumtemperatur und anschließender Extinktionsmessung bei 405 nm bestimmt.
# (§3) Die Kreuzreaktion wurde anschließend mit folgender Formel berechnet: [formula] C = Konzentration des jeweiligen Antigens, die zur Erreichung von 50 % des maximalen Signals erforderlich ist.
# [2] = system: monoklonaler Antikörper 1.25.53 gegen Histamin-ITCB; conditions: amount of Histamin-ITCB for 50 % signal drop (50 % IC) in ELISA; antibody 1.25.53
# Source text: as §1, §2, §3
# [3] = system: monoklonaler Antikörper 1.36.59 gegen Histamin-ITCB; conditions: amount of Histamin-ITCB for 50 % signal drop (50 % IC) in ELISA; antibody 1.36.59
# Source text: as §1, §2, §3
# [4] = system: monoklonaler Antikörper 1.47.74 (ECACC 90071902) gegen Histamin-ITCB; conditions: amount of Histamin-ITCB for 50 % signal drop (50 % IC) in ELISA; antibody 1.47.74
# Source text: as §1, §2, §3
# [5] = system: monoklonaler Antikörper 1.54.95 gegen Histamin-ITCB; conditions: amount of Histamin-ITCB for 50 % signal drop (50 % IC) in ELISA; antibody 1.54.95
# Source text: as §1, §2, §3
# [6] = system: monoklonaler Antikörper 1.68.168 gegen Histamin-ITCB; conditions: amount of Histamin-ITCB for 50 % signal drop (50 % IC) in ELISA; antibody 1.68.168
# Source text: as §1, §2, §3
# [7] = system: monoklonaler Antikörper 1.83.201 gegen Histamin-ITCB; conditions: amount of Histamin-ITCB for 50 % signal drop (50 % IC) in ELISA; antibody 1.83.201
# Source text: as §1, §2, §3
# [8] = system: monoklonaler Antikörper 1.97.235 gegen Histamin-ITCB; conditions: amount of Histamin-ITCB for 50 % signal drop (50 % IC) in ELISA; antibody 1.97.235
# Source text: as §1, §2, §3
smiles,measurement,setting,value
"O=C(O)c1cccc(NC(=S)NCCc2c[nH]cn2)c1 [Histamin-ITCB, N-(3-Carboxyphenyl)-N'-[2-(4-imidazolyl)ethyl]thioharnstoff]",Relative Affinität zu Histamin-ITCB,[1],"0,5 ng/ml"
same,Relative Affinität zu Histamin-ITCB,[2],1 ng/mL
same,Relative Affinität zu Histamin-ITCB,[3],1 ng/mL
same,Relative Affinität zu Histamin-ITCB,[4],"0,8 ng/ml"
same,Relative Affinität zu Histamin-ITCB,[5],"1,5 ng/ml"
same,Relative Affinität zu Histamin-ITCB,[6],"1,4 ng/ml"
same,Relative Affinität zu Histamin-ITCB,[7],"0,75 ng/ml"
same,Relative Affinität zu Histamin-ITCB,[8],"1,5 ng/ml"
